In patent publication US20110152221A1, “PAK1 Agonists and Methods of Use” (THE BOARD OF TRUSTEES OF THE UNIVERSITY OF ILLINOIS, priority 2008, published 2011):

How the values were obtained:
[1] = test system: cardiac troponin in cardiomyocytes / ventricle myocytes; test: Dephosphorylation of cardiac troponin in cardiomyocytes; type: cell-based
Text: FTY720 is a structural analogue of sphingosine-1 and C2/C6-ceramide. […] Therefore, like C2- and C6-ceramides, FTY720 can serve as a β-blocker competitor for ischemic heart diseases including angina and systolic heart failure. The anti-(β) adrenergic effect of FTY720 is through activation of Pak1 in the heart. Our current observation further enforced by our previous work on Pak1 function related to heart diseases. Our studies also indicate that even better drug candidates can be designed or screened by testing their effects on Pak1 activation or inhibition using C2/C6 ceramides and FTY720 as prototypes.

[2] = test system: L-type Ca2+ channel; details: different types of cells; Chik 1999, 2004; cited from earlier work
[3] = test system: T-cells; details: O'Byrne 2000; cited from earlier work
[4] = target: T1, Pak1 purified from cardiac muscle (Bos taurus, UniProt Q08E52); test: Pak1 kinase assay (autophosphorylation, [γ32P] ATP, autoradiography); type: biochemical, bovine; details: for autophosphorylation of Pak1: concentration not given
T1 construct: from tissue; host or cells: bovine ventricle (cardiac) muscle
Protocol: Preparation of Muscle Sample. Frozen bovine ventricle muscle (200 g) was cut into small pieces and homogenized in a blender containing 1 liter homogenization buffer (50 mM Tris base, 5 mM EDTA, 2 mM EGTA, 1 mM DTT, 0.5 mM benzamidine, 0.1 mM PMSF, pH 7.2). The homogenized muscle sample was centrifuged at 4500 g for 30 minutes. The supernatant fraction was saved and precipitated with ammonium sulfate (NH4)2SO4 at concentration 25% and 50% (w/v). Precipitates formed by (NH4)2SO4 addition between concentration 25% (w/v) and 50% (w/v) were saved and dialyzed against the homogenization buffer. After dialysis, the sample was filtered and lyophilized. For purification of Pak1 from smaller amounts of sample, the tissues or cells were homogenized in mammalian extraction buffer (50 mM Tris, pH 7.5; 150 mM NaCl; 0.1% Nonide P40; Complete Protease inhibitor cocktail tablets [Roche Diagnostics, cat # 11 873 580 001]). The ratio of tissue:buffer was about 1:5 (v/v). The homogenate was centrifuged in a bench-top centrifuge at 4° C. The supernatant fraction was saved for direct application onto the affinity column.
Affinity Chromatography. The column was first washed with 20 ml equilibration buffer (20 mM Tris, pH 7.5; 0.1 M NaCl; 0.1 mM EDTA). Decoy peptide (3 mg) was applied to the column to saturate the matrix with the peptide. The muscle sample (the lyophilized extract) was dissolved in buffer (20 mM Tris, pH 7.5; 0.1 M NaCl; 0.1 mM EDTA) containing protease inhibitor cocktail tablets. The sample was loaded onto the affinity column and then washed with 20 ml washing buffer (20 mM Tris, pH 7.5; 0.1 M NaCl; 0.1 mM EDTA; 0.05% Tween-20). The Pak1 bound to the gel was eluted with equilibration buffer containing HA peptide ([…]) (SEQ ID NO: 2) at 1 mg/ml. HA peptide was removed from the sample by dialysis in buffer containing 20 mM HEPES, 5 mM NaCl, pH 7.2. The bound Pak1 could also be eluted with 5 ml glycine buffer, pH 2.5 (50 mM glycine-HCl; 0.1% Triton X-100; 0.15 M NaCl).
Kinase Assay. Pak1 kinase activity was assayed in the following reaction buffer: 50 mM HEPES, pH 7.3, 10 mM MgCl2, 1 mM DTT, 0.05% Triton X-100) with 10 μCi of [γ32P] ATP (Perkin Elma. [γ-32P]-Adenosine 5′-triphosphate, Specific Activity: 3000 Ci (111TBq)/mmole, 50 mM Tricine (pH 7.6), Concentration: 5 mCi/mL, Catal NEG502H250UC) at 37° C. for 2 h. The kinase reaction was stopped by adding SDS sample buffer followed by boiling for 5 min. In view of reports of sphingosine-1 inducing an increase in Pak1 and Pak2 activity in vitro (Bokoch 1998, p 8137-8144; Roig 2001, p 195-199), the effect of sphingosine and sphingosine-1 phosphate on Pak1 autophosphorylation was also tested (FIG. 3A). The tested agonists (obtained from Calbiochem) included the following: C2 ceramide (N-acetyl-D-erythro-sphingosine), C6 ceramide (N-Hexanoyl-D-erythro-sphingosine) and safingol (Dihydro-L-threo-sphingosine). D-sphingosine (S 6879) and sphingosine 1-phosphate (S 9666) were purchased from Sigma. Sphingosines were dissolved in DMSO. The total reaction volume was 20 μl. DMSO (2 μl) was included in each reaction including the control. Incorporation of 32P from gamma 32P into Pak1 was directly detected by autoradiography after resolve the in vitro reaction products on SDS PAGE. […] When the sphingosine phosphate concentration increased to 100 and 200 μM, there was an increase in Pak1 autophosphorylation. In purified Pak1 sample, a 48 kD Pak1 degradation products can sometimes be detected (FIG. 1A, lane 3). When Pak1 activity increased, phosphorylation of the degradation products increased accordingly (FIG. 3).
Autophosphorylation of Pak1, which correlates with its activity, provided a measure of Pak-1 enzyme function. […] In all the in vitro assays, we used 4 μg of Pak1 protein. The smaller band (˜48 kD) that could be Pak1 degradation products was also phosphorylated. […] The decoy peptide contains Pak1 autophosphorylation sites. […]

[5] = test system: heart; details: Furuya 2001; Lecour 2006; cited from earlier work
[6] = test system: PP2A; details: Dobrowsky 1993; cited from earlier work
[7] = test system: heart rate; details: same or lower dose than used in clinical studies for organ transplantation and multiple sclerosis; cited from earlier work
[8] = target: T2, decoy peptide (YNSKKTSNSQKYMSFTDKSA) (amino acids 131-150 of SEQ ID NO: 1)
T2 chain: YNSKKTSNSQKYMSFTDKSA

T1 sequence (Q08E52 whole entry): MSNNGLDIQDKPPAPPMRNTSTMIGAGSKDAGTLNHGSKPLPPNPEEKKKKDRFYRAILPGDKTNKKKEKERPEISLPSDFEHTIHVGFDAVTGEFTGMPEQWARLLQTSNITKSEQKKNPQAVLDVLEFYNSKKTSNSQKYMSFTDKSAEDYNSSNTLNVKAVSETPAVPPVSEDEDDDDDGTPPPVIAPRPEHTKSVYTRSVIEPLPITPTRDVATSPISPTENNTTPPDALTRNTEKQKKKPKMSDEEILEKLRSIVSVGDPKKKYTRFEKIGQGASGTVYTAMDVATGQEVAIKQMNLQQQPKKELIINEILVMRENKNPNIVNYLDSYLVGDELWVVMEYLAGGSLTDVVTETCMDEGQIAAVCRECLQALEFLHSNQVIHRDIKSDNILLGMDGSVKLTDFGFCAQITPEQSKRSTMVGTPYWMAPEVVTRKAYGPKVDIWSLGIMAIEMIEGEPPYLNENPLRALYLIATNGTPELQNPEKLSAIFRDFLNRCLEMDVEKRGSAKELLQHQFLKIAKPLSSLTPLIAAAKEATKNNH

## CCCCCCCCCCCCC/C=C/[C@@H](O)[C@H](CO)NC(C)=O [C2 ceramide, N-acetyl-D-erythro-sphingosine]
[1]
  dephosphorylation of cardiac troponin in cardiomyocytes: induces dephosphorylation
[2]
  L-type Ca2+ channel activity: depressed
[3]
  proliferation of T-cells stimulated by growth signals: inhibited proliferation
[4]
  effect activating Pak1 compared with sphingosine-1: stronger effect than sphingosine-1
[4]; 37° C., 2 h
  autophosphorylation of Pak1: highly responsive
[5]
  pre-conditioning effects in heart: pre-conditioning effects
[6]
  PP2A activation: known activator

## CCCCCCCCCCCCC/C=C/[C@@H](O)[C@H](CO)NC(=O)CCCCC [C6 ceramide, N-Hexanoyl-D-erythro-sphingosine]
[1]
  dephosphorylation of cardiac troponin in cardiomyocytes: induces dephosphorylation
[4]
  effect activating Pak1 compared with sphingosine-1: stronger effect than sphingosine-1
[4]; 37° C., 2 h
  autophosphorylation of Pak1: highly responsive

## CCCCCCCCCCCCC/C=C/[C@@H](O)[C@@H](N)CO [D-Sphingosine-1, D-erythro-sphingosine]
[4]; in the presence of 50 and 100 μM, 37° C., 2 h
  Autophosphorylation of the purified Pak1: increased

## CCCCCCCCc1ccc(CCC(N)(CO)CO)cc1 [FTY720, fingolimod]
[7]
  cardiac effect (heart rate): decrease of heart rate

## CCCCCCCCCCCCCCC[C@H](O)[C@@H](N)CO [saphingol, Dihydro-L-threo-sphingosine]
[4]; 37° C., 2 h
  autophosphorylation of Pak1: only slightly regulated
[4]; 37° C., 2 h, listed as Saphingosine
  autophosphorylation of Pak1: small stimulatory effect

## CCCCCCCCCCCCC/C=C/[C@@H](O)[C@@H](N)COP(=O)(O)O [sphingosine-1 phosphate, sphingosine 1-phosphate]
[4]; at 25 and 50 μM, 37° C., 2 h
  effect on autophosphorylation of Pak1: no significant effect
[4]; at 100 and 200 μM, 37° C., 2 h
  Pak1 autophosphorylation: increase

## YNSKKTSNSQKYMSFTDKSA [decoy peptide]
[4]; 37° C., 2 h
  autophosphorylation of Pak1: slightly inhibited
[4]; data not shown
  total kinase activity in the presence of the decoy peptide: slight increase

B1: Pak1 purified from bovine ventricle muscle (p21 activated kinase-1) (protein)
chain: SNNGLDIQDKPPAPPMRNTSTMIGAGSKDAGTLNHGSKPLPPNPEEKKKKDRFYRAILPGDKTNKKKEKERPEISLPSDFEHTIHVGFDAVTGEFTGMPEQWARLLQTSNITKSEQKKNPQAVLDVLEFYNSKKTSNSQKYMSFTDKSAEDYNSSNTLNVKAVSETPAVPPVSEDEDDDDDGTPPPVIAPRPEHTKSVYTRSVIEPLPITPTRDVATSPISPTENNTTPPDALTRNTEKQKKKPKMSDEEILEKLRSIVSVGDPKKKYTRFEKIGQGASGTVYTAMDVATGQEVAIKQMNLQQQPKKELIINEILVMRENKNPNIVNYLDSYLVGDELWVVMEYLAGGSLTDVVTETCMDEGQIAAVCRECLQALEFLHSNQVIHRDIKSDNILLGMDGSVKLTDFGFCAQITPEQSKRSTMVGTPYWMAPEVVTRKAYGPKVDIWSLGIMAIEMIEGEPPYLNENPLRALYLIATNGTPELQNPEKLSAIFRDFLNRCLEMDVEKRGSAKELLQHQFLKIAKPLSSLTPLIAAAKEATKNNH
[8]
  autophosphorylation of Pak1: The decoy peptide slightly inhibited autophosphorylation of Pak1
